This experiment relates to Deroceras reticulatum. Description: Laboratory terraria barrier test on blotting paper (winter wheat seed hollowing, slug mortality). In kind it is in vivo. The conditions noted are these: for slug mortality: barrier on blotting paper. The procedure: Plastic trays (0.07 m^2) were lined with unbleached blotting paper and saturated with de-ionised water. Three groups of eight winter wheat seeds were placed into each tray and each group surrounded with approximately 1-2 g of test material, forming a barrier with approximately 1 cm diameter. Four slugs (Deroceras reticulatum) pre-starved for 24-48 hours were introduced to the trays. The tests were performed under controlled conditions (12 hours light 15° C.: 12 hours dark 15° C., 90% humidity). Five replicates were prepared per condition.
The trays were observed daily, for seven days, for seed hollowing and mortality. After the seven days, the slugs were replaced with naive slugs and the test run for a further seven days. Mortality was indicated by failure to respond to 12-volt D.C. stimuli.
Note: i) In all the experiments, a negative control was prepared consisting of slugs only, sawdust only, or “alcoholic” sawdust. ii) Metaldehyde (4%) was used as a positive control, to compare the toxicity properties of the 100% plant raw materials, rather than as a physical barrier.
The method is identical to that used in Example 1 above.

Structures are written as SMILES.

Compound `CC1OC(C)OC(C)OC(C)O1` (stereo not drawn) [metaldehyde (4%), metaldehyde] gave a seed hollowing (barrier around winter wheat seeds on blotting paper, first seven days (days 1 to 7)) of 1%. Also, the slug mortality is, setting by setting: (days 8 to 14) 100%; (first seven days) 90%.

These data come from patent US20050163815A1, “Use of plant materials as a terrestrial molluscicidal and/or molloscrepellant agent” (priority 2002, published 2005).
